Reference: US12202818B2, “Compounds and methods for CD73 modulation and indications therefor” (Opna Bio SA, priority 2020, dated 2025)

Experiments:
[1] = molecular target: T1, Human CD73 (amino acid residues 27-549) (Homo sapiens, UniProt P21589); test: CD73 enzymatic assay (luciferase-based indirect assay, CellTiter-Glo); format: biochemical; details: 0.4 nM CD73, 150 μM AMP, 1 hour at room temperature
T1 construct: Human CD73 (amino acid residues 27-549); His tag (N); made in house; host or cells: E. coli
T1 sequence (P21589 27-549): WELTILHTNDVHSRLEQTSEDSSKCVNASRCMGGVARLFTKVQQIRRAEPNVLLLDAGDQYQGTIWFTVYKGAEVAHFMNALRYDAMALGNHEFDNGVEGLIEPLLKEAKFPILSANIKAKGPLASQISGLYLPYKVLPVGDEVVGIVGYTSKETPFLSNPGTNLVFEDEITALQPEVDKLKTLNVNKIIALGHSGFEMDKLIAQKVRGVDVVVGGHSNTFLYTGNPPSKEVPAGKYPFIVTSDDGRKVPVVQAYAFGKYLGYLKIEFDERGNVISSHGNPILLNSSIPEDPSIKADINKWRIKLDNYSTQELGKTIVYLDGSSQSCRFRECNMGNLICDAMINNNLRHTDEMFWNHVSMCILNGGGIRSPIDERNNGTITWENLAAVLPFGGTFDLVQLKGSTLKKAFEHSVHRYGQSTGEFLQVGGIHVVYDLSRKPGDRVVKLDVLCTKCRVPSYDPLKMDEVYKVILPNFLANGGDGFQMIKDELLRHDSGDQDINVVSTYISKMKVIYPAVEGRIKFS
Procedure, shortened: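 Luciferase-coupled readout: AMP left after CD73 turnover suppresses CellTiter-Glo signal (1 μM ATP final, 30 min RT). Reaction beforehand: 150 μM AMP, 0.4 nM E. coli-made His-tagged CD73 residues 27-549, test compound, HEPES pH 7.4 with Tween-20, 1 h RT. % inhibition fitted nonlinearly for IC50.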

human CD73 = molecular target: T2, human CD73 (Homo sapiens, UniProt P21589); test: Inhibitor activity against CD73 in cell based assay (CD73 expressing CHO-K1 cells); details: CHO-K1 cells expressing human CD73, 150 μM AMP, 4 hours of incubation; read-out: CHO-K1 CELL_VARIANT: CD73 IC50
T2 construct: expressed in transfected cells
T2 sequence (P21589 27-549): T1 sequence (P21589 27-549)
Procedure, shortened: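 AMP (150 μM) was added alongside 8 titrated compound doses (maximum 10 μM, 1:3 steps) to CHO-K1 cells stably expressing human CD73. After 4 h, supernatant AMP was measured indirectly with CellTiter-Glo 2.0 plus 1 μM ATP (30 min, RT). % inhibition versus high and low controls was fitted nonlinearly for IC50.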

IC50 [1] [µM] | IC50 (human CD73) [µM] | SMILES
0.001 to 10 | 0.001 to 10 | Cc1nn(CC(C)(C)O)c(C)c1-c1ccnc(O[C@H]2CN(c3cnn(CCO)c(=O)c3Cl)C[C@@H]2F)c1 [P-0015, 4-chloro-5-((3S,4S)-3-fluoro-4-((4-(1-(2-hydroxy-2-methylpropyl)-3,5-dimethyl-1H-pyrazol-4-yl)pyridin-2-yl)oxy)pyrrolidin-1-yl)-2-(2-hydroxyethyl)pyridazin-3(2H)-one]
0.001 to 10 | 0.001 to 10 | Cc1nn(CC2(F)CNC2)c(C)c1-c1cc(F)nc(O[C@@H]2CCN(c3cn[nH]c(=O)c3Cl)C2)c1 [P-0154, (R)-4-chloro-5-(3-((6-fluoro-4-(1-((3-fluoroazetidin-3-yl)methyl)-3,5-dimethyl-1H-pyrazol-4-yl)pyridin-2-yl)oxy)pyrrolidin-1-yl)pyridazin-3(2H)-one]
0.001 to 10 | 0.001 to 10 | Cc1nn(C)c(C)c1-c1cc(F)nc(O[C@H]2CN(c3cnn(CCO)c(=O)c3Cl)C[C@@H]2F)c1 [P-0190, 4-chloro-5-((3S,4S)-3-fluoro-4-((6-fluoro-4-(1,3,5-trimethyl-1H-pyrazol-4-yl)pyridin-2-yl)oxy)pyrrolidin-1-yl)-2-(2-hydroxyethyl)pyridazin-3(2H)-one]
0.001 to 10 | 0.001 to 10 | Cc1nn(C)c(C)c1-c1cc(O[C@@H]2CCN(c3cnn(CCO)c(=O)c3Cl)C2)ncc1F [P-0115, (R)-4-chloro-5-(3-((5-fluoro-4-(1,3,5-trimethyl-1H-pyrazol-4-yl)pyridin-2-yl)oxy)pyrrolidin-1-yl)-2-(2-hydroxyethyl)pyridazin-3(2H)-one]
0.001 to 10 | 0.001 to 10 | Cc1nn(CC(F)F)c(C)c1-c1cc(F)nc(O[C@@H]2CCN(c3cn[nH]c(=O)c3Cl)C2)c1 [P-0169, (R)-4-chloro-5-(3-((4-(1-(2,2-difluoroethyl)-3,5-dimethyl-1H-pyrazol-4-yl)-6-fluoropyridin-2-yl)oxy)pyrrolidin-1-yl)pyridazin-3(2H)-one]
0.001 to 10 | 0.001 to 10 | Cc1nn(C)c(C)c1-c1ccnc(O[C@@H]2CCN(c3cnn(CC(O)CO)c(=O)c3Cl)C2)c1 (stereo partly drawn) [P-0131, 4-chloro-2-(2,3-dihydroxypropyl)-5-((R)-3-((4-(1,3,5-trimethyl-1H-pyrazol-4-yl)pyridin-2-yl)oxy)pyrrolidin-1-yl)pyridazin-3(2H)-one]

Second part, the compound before the results:

SMILES | IC50 [1] [µM] | IC50 (human CD73) [µM]
Cc1noc(C)c1-c1ccnc(O[C@@H]2CCN(c3cn[nH]c(=O)c3Br)C2)c1 [P-0066, (R)-4-bromo-5-(3-((4-(3,5-dimethylisoxazol-4-yl)pyridin-2-yl)oxy)pyrrolidin-1-yl)pyridazin-3(2H)-one] | 0.001 to 10 | 0.001 to 10
CCC1(Cn2nc(C)c(-c3ccnc(O[C@@H]4CCN(c5cn[nH]c(=O)c5Cl)C4)c3)c2C)COC1 [P-0054, (R)-4-chloro-5-(3-((4-(1-((3-ethyloxetan-3-yl)methyl)-3,5-dimethyl-1H-pyrazol-4-yl)pyridin-2-yl)oxy)pyrrolidin-1-yl)pyridazin-3(2H)-one] | 0.001 to 10 | 0.001 to 10
COC(=O)C1CC(Cn2nc(C)c(-c3ccnc(O[C@@H]4CCN(c5cn[nH]c(=O)c5Cl)C4)c3)c2C)C1 (stereo partly drawn) [P-0055, methyl (R)-3-((4-(2-((1-(5-chloro-6-oxo-1,6-dihydropyridazin-4-yl)pyrrolidin-3-yl)oxy)pyridin-4-yl)-3,5-dimethyl-1H-pyrazol-1-yl)methyl)cyclobutane-1-carboxylate] | 0.001 to 10 | 0.001 to 10
Cc1nn(C(F)F)c(C)c1-c1ccnc(O[C@@H]2CCN(c3cn[nH]c(=O)c3Cl)C2)c1 [P-0170, (R)-4-chloro-5-(3-((4-(1-(difluoromethyl)-3,5-dimethyl-1H-pyrazol-4-yl)pyridin-2-yl)oxy)pyrrolidin-1-yl)pyridazin-3(2H)-one] | 0.001 to 10 | 0.001 to 10
Cc1nn(CC2COC2)c(C)c1-c1cc(O[C@@H]2CCN(c3cn[nH]c(=O)c3Cl)C2)ncn1 [P-0061, (R)-4-chloro-5-(3-((6-(3,5-dimethyl-1-(oxetan-3-ylmethyl)-1H-pyrazol-4-yl)pyrimidin-4-yl)oxy)pyrrolidin-1-yl)pyridazin-3(2H)-one] | 0.001 to 10 | 0.001 to 10
